Row | SMILES | melting point [°C]
1 | Fc1ccc(CNC(=S)N2CCc3c([nH]c4ccccc34)C2c2ccc3c(c2)OCO3)cc1 (configuration not stated) | 137 to 139
2 | CCOC(=O)c1c(O)c2cnc(-c3ccccc3)nc2n(CC)c1=O | 177 to 180
3 | CCOC(=O)C(=O)Nc1cc(C#N)ccc1O | 295
4 | CCCC(CCC)n1[nH]c(Cc2c(C)n(C(=O)c3ccc(Cl)cc3)c3ccc(OC)cc23)cc1=O | 167 to 168
5 | CCc1c(N2CCC(N)CC2)c(F)cc2c(=O)c(C(=O)O)cn(C3CC3)c12 | 248 to 249
6 | Cc1cnc2c(C(=O)NC=NO)c(Cl)ccc2c1 | 235 to 238
7 | CCOC(=O)Cn1cc(C(=O)NCCN(C)C)c2nc3c(C)cccc3cc2c1=O | 214 to 215
8 | CCCCCCCCCCCCCCCCCCOc1ccc(NC(=O)c2ccc(O)cc2)cc1 | 170
9 | CCCc1nc2c(N)nc3cc(Oc4ccccc4N)ccc3c2n1CC(C)C | 197 to 199
10 | Fc1ccc(F)c(C(Sc2ccc(Cl)cc2)c2ccc(C3OCCO3)cn2)c1 (configuration not stated) | 70 to 73
11 | CCCCCCCCCCCCCCc1ccc(C(=O)CCCCC)c(O)c1 | 44 to 45
12 | CC1CC(=O)N[C@@H]2CCc3cc(Cl)ccc3[C@@H]12 (some centres not stated) | 71.5 to 73
13 | CSc1ccc(-c2coc3ccc(C(=O)NN)cc23)cc1Cl | 207 to 208
14 | CCCCc1nc(Cl)c(Cl)[nH]1 | 122 to 123
15 | COc1cc(Cl)ccc1C(=O)Nc1ccc(C(=O)N2Cc3cccn3Cc3ccccc32)cc1 | 222 to 224
16 | COC(=O)c1ccc(Cn2c(=O)c(C)c3sc(C(=O)NCc4ccc(F)cc4)cn3c2=O)cc1OC | 191 to 193
17 | COc1cc(OCc2ccccn2)ccc1/C=C/c1cc(/C=C/c2ccc3[nH]cnc3c2)n[nH]1 | 135 to 142
18 | CCOC(=O)Cc1n[nH]c(=O)c2cc(Cl)c(Cl)cc12 | 202 to 203
19 | COc1ccc(-c2c(C)c(NC(=O)CC(C)(C)C)c(C)c3c2OCC3c2ccc(C(C)C)cc2)cc1 (configuration not stated) | 129 to 131
20 | CN(CC(N)=O)c1nccc(-c2ccc(C(=O)NCCc3ccc4[nH]cc(C(=N)N)c4c3)cc2)n1 | 96 to 98
21 | CCCCCCc1cc2c(s1)-n1c(C)nnc1CN=C2c1ccccc1Cl | 111 to 113
22 | CCCCN1CCN(Cc2nc(-c3ccc4c(c3)Nc3ccccc3S4)cs2)CC1 | 188 to 190
23 | Cc1cc(-c2ccc(Cl)c(Cl)c2)n(-c2ccc(S(N)(=O)=O)cc2)c1 | 136 to 138
24 | NC(=O)c1cc(OCCCN2CCN(c3cccc4sccc34)CC2)c2ccccc2n1 | 153 to 154
25 | O=S1(=O)NCc2ccccc2O1 | 89 to 90

Row | SMILES | melting point [°C]
26 | CN(Cc1cccs1)C(=O)C1CC2C=CC1C2 (configuration not stated) | 74 to 75
27 | CSCN1C(=O)c2cccnc2N(CSC)c2cc(Cl)ccc21 | 181 to 182
28 | COc1ccc2c(=O)nc(-c3ccccn3)sc2c1 | 200 to 202
29 | CC(C)NC(=O)N1N=C(c2ccc([N+](=O)[O-])cc2)c2cc(Cl)ccc2CC1C (configuration not stated) | 172 to 174
30 | COc1ccc2c(C)c(CCO)c(=O)oc2c1 | 141 to 142
31 | COCCOc1c(C)cc(-c2nc3cc(OC)cc(OC)c3c(=O)[nH]2)cc1C | 201 to 202
32 | COc1cc(C)c2ccc(N3C(=O)C4=C(SCCS4)C3OC(=O)N3CCN(C)CC3)nc2n1 (configuration not stated) | 232 to 234
33 | CC(C)(C)c1ccc(-c2cc3ccc(C(=O)O)cc3[nH]2)cc1 | 297
34 | Cn1ccnc1C1(CCCCc2ccc(N3C(=O)c4ccccc4C3=O)cc2)c2ccccc2-c2ccccc21 | 76 to 80
35 | COc1nc(SC)nc(Cl)c1C(=O)O | 179 to 181
36 | CC(C)(CO)OCc1nn(Cc2ccccc2)c2ccccc12 | 52 to 53
37 | CC(C)(C)OC(=O)NCCNC(=O)c1ncccc1Oc1ccc(Cl)cc1 | 120 to 122
38 | COc1ccc(N(C(=O)CN2C(=O)C(C)(Cc3n[nH]c4ccccc34)C(=O)N(c3cccnc3)c3ccccc32)C(C)C)cc1 (configuration not stated) | 161 to 165
39 | CCCCN(Cc1ccc2cc(O)ccc2c1)C(=O)c1c(C)oc2ccccc12 | 126 to 128
40 | COC(=O)c1ccccc1S(=O)(=O)NC(=O)Nc1nnc(SC)n(C)c1=O | 186 to 187
41 | CCc1cnc2c(NC(=O)c3c(Cl)cccc3Cl)cccc2c1/C=C/C(=O)O | 235 to 236
42 | CCCCOP(=O)(Cc1cc(C(C)(C)C)c(O)c(C(C)(C)C)c1)Cc1cc(C(C)(C)C)c(O)c(C(C)(C)C)c1 | 133 to 135
43 | Cc1ccc(F)cc1C1CC(=O)c2c(C)ccnc2C1 (configuration not stated) | 113 to 114
44 | O=S(=O)(c1ccc(Cl)cc1)C(CCSCCO)c1cc(F)ccc1F (configuration not stated) | 108 to 110
45 | CC(O)COC(c1c(C(C)C)nn2ccccc12)C(C)C (configuration not stated) | 112
46 | CCCCN(CCCC)S(=O)(=O)c1cc(O)c(N=Nc2c(C)nn(-c3ccccc3)c2O)c2ccccc12 | 173 to 174
47 | NS(=O)(=O)c1ccc(NC(=O)CCl)c(F)c1 | 185 to 187
48 | S=C(CCC(c1ccccc1)(c1ccccc1)c1ccccc1)Oc1c(Cl)c(Cl)c(Cl)c(Cl)c1Cl | 154 to 156
49 | O=C(c1ccc(Oc2ccccc2)cc1)c1ccc(C(=O)c2ccc(Oc3ccccc3)cc2)cc1 | 212 to 214
50 | COc1ccc(NC(=O)c2ccc(F)c(F)c2)cc1NS(=O)(=O)c1ccc([N+](=O)[O-])cc1 | 231 to 249

Row | SMILES | melting point [°C]
51 | CCOC(=O)C(C)(C)Oc1ccc(-c2ccc(CCNC(=O)Cc3ccccc3)cc2)cc1 | < 20
52 | Nc1ccccc1SCc1noc(CSc2ccccc2N)n1 | 68
53 | Cc1c(CO)cccc1NC(=O)CN1C[C@@H](C)N(c2ncnc3sccc23)[C@@H](C)C1 | 203 to 204
54 | CC(=O)NC[C@H]1CN(c2ccc(N3CCC(=O)N(C)CC3)c(F)c2)C(=O)O1 | 203 to 204
55 | CC(Cl)COC(C)c1ccc(O)cc1 (single isomer, unassigned; (+)) | 50 to 51
56 | O=C(O)CCCCCCCCCCc1cccs1 | 41 to 42
57 | CCCc1nc2c(N)nc3cccnc3c2n1CCCC(=O)N1CCOCC1 | 196 to 197
58 | C=CCn1c(C)nc2c3c(c(C(=O)OCC)cc21)C(=O)CC1(Cc2ccccc2C1)N3 | 183 to 184
59 | COC(=O)COc1ccc(C=O)cc1 | 39 to 41
60 | COCCOCc1nc2c(N)nc3ccccc3c2n1CCOc1ccccc1 | 170 to 172
61 | CC(O)(CCN1C(=O)c2ccccc2C1=O)c1ccc(-c2ccc(Cl)cc2)cc1 (configuration not stated) | 177 to 179
62 | N#Cc1ccc(C(=O)N[C@H]2CC[C@H](CCN3CCN(c4nccc5c4OCC5)CC3)CC2)cc1 | 262
63 | O=Cc1cc(OCCCC(=O)N(CCO)CCCCC2CCCC2)ccc1[N+](=O)[O-] | 107 to 108
64 | Cc1ccccc1OCCCc1oc(-n2ccnc2C)nc1-c1ccc(Cl)cc1 | 111 to 112
65 | CC(=C1SC(=O)NC1=O)c1ccc(OCCOc2c(-c3ccc(F)c(F)c3)n(C)c3cc(Cl)ccc3c2=O)cc1 | 296 to 298
66 | CCOCc1nc2c(N)nc(C)cc2n1CCOCc1ccccc1 | 127 to 128
67 | COc1cc(N)c([N+](=O)[O-])cc1C(F)(F)F | 56
68 | Cc1nc(N)nc(N)c1-c1cc(Cl)c([N+](=O)[O-])c(Cl)c1Cl | 313 to 315
69 | COc1ccc(OC)c2c1C(=O)C=C(SCCCCCCO)C2=O | 87 to 88
70 | COC(=O)On1c(C(=O)OC)cc2c(C)ccc(C)c21 | 75 to 80
71 | CCN(c1ccc(C)c2cc(-c3ncc(C(C)O)s3)[nH]c12)S(=O)(=O)c1cccs1 (configuration not stated) | 152 to 153
72 | Nc1ccc(C23CC2C(=O)N(Cc2ccccc2)C3=O)cc1 (configuration not stated) | 147 to 149
73 | O=C(O)C1Cc2cc(-c3ccc(Cl)cc3)ccc2O1 (configuration not stated) | 94 to 96
74 | O=C1c2ccccc2C(=O)N1SN1C(=O)c2ccccc2C1=O | 301 to 315
75 | COc1ccc(C(=O)Nc2ccc(C(C)(C)C(N)=O)cc2)cc1OC | 193 to 195

Row | SMILES | melting point [°C]
76 | COc1c2c(c(OC)c(OC)c1OC)CCC(CCn1nnc3ccccc31)CC2 | 99 to 101
77 | CCN(CC)c1nc2ccccc2n2c(C)nnc12 | 123 to 125
78 | CNC(=O)CCCCCCCN(Cc1ccccc1)S(=O)(=O)c1ccc(Cl)c(COc2cccc3ccc(C)nc23)c1Cl | 120
79 | Cc1nnc(CCl)n1-c1ccc(Cl)cc1C(=O)c1ccccc1Cl | 127 to 130
80 | CC(C)(C)c1cc(C=O)c(O)c(S(C)(=O)=O)c1 | 134 to 136
81 | CC1(C2CCCC2)Cc2cc(O)c(Cl)c(Cl)c2C1=O (configuration not stated) | 190 to 194
82 | CC(C)NC=C1C(=O)COc2ccccc2C1=O | 89 to 91
83 | CCCCCCCCCCC[C@@H]1CC(=O)CC(=O)O1 | 82 to 85
84 | COc1nc(OC)c(C(C)C)c(C(=O)c2cc(C)cc(Cl)c2)n1 | 119 to 120
85 | CC(=O)SC1C2=C(CCCC2)C(=O)N1c1ccc(Br)cc1F (configuration not stated) | 117 to 118
86 | O=C1COc2c(cc(Cl)cc2C(=O)NC2CCN(CCc3ccccc3)CC2)N1 | 233 to 235
87 | CNC(=O)Cn1c(-c2ccc(Br)o2)nc2cccnc21 | 187 to 191
88 | O=c1c(Cl)c(OCc2ccc(Cl)cc2)cnn1-c1ccc(Cl)cc1F | 167 to 168
89 | Cc1csc(NC(=O)N(C)C)n1 | 97 to 98
90 | CCc1cccc2c3c([nH]c12)C(CC)(CC(N)=O)OCC3 (configuration not stated) | 189 to 190
91 | O=C(c1cccnc1)N1CCC(c2nc(-c3cnc(-c4ccccc4)nc3)c[nH]2)CC1 | 234
92 | O=c1cc(-c2ccncc2)nc2n1CC(O)CN2CCCc1ccccc1F (configuration not stated) | 305 to 307
93 | CC1(C)OC(=O)Nc2ccc(-c3coc(C#N)c3)cc21 | 255 to 256
94 | Nc1ccc2oc3c(c2c1)CCC3 | 86.5 to 88.5
95 | O=C1Nc2cccnc2N(C(=O)Cl)c2ccccc21 | 239 to 240
96 | O=C1c2cccc([N+](=O)[O-])c2C2CC3(CCN12)SCCS3 (configuration not stated) | 185
97 | Cc1oc(-c2ccco2)nc1COc1ccc(Cn2cc(CCC(=O)O)c(-c3ccc(C(F)(F)F)cc3)n2)cc1 | 92 to 93
